Measurements published in article PMC8512764, “New 4-Aminoproline-Based Small Molecule Cyclopeptidomimetics as Potential Modulators of α4β1 Integrin” (Molecules, 2021).
Entries after “also recorded” stand apart in the source; their conditions may differ. *1 amine or outer side, *2 acyl side, *3 side chain or, on linkers, in order; H or OH if unused. Where a SMILES comes first, the peptide text is derived from it. Bridges are numbered along the chain shown (N, C = ends). [ ]: non-standard residue; d: D form. The star is where a group is joined. ξ: configuration not given here. ξPro(4ξ-NH2) = O=C(C1CC(N[*:3])CN1[*:1])[*:2]; X1 = O=C(Cc1ccc(N[*:1])cc1)[*:2]; NH(2-Me-phenyl) = Cc1ccccc1N*; CO = O=C([*:1])[*:2]

Legend:
[1] = parameters: method as in PMID 31338363, PMID 26101577; conditions: cited from earlier work
[2] = system: α4β7 integrin; parameters: method as in PMID 10072689; conditions: cited from earlier work
[3] = system: Jurkat cells; test: Jurkat cell adhesion to wells coated with compound 16 (absence of VCAM-1); type: cell-based
Procedure: In a second set of experiments, the ability of compound 16 to increase cell adhesion was tested in the absence of VCAM-1. Wells were coated by passive adsorption with compound 16 or BSA (both at 10 µg/mL) as a negative control and Jurkat cell adhesion was measured (Figure 8b).
(§1) The number of adherent cells was determined as described above.

[4] = system: α4β1/VCAM-1 interaction; parameters: method as in PMID 10072689; conditions: Jurkat cell adhesion assay; read-out: IC50, inhibition of α4β1/VCAM-1 interaction; cited from earlier work
[5] = system: allergic bronchoconstriction; parameters: method as in PMID 10072689; conditions: administered as an aerosol; cited from earlier work
[6] = target: T1, α4β1 integrin (Homo sapiens, UniProt P05556+P13612); conditions: cited from earlier work
T1 construct: Jurkat cells endogenously express α4β1 integrin; host or cells: Jurkat E6.1 cells

[7] = target: T1, α4β1 integrin; test: Jurkat cell adhesion assay on VCAM-1-coated wells; type: cell-based
Procedure: To investigate the ability of the newly synthesized cyclopeptidomimetics 12–18 to recognize and bind α4β1 integrin, cell adhesion assays were performed on VCAM-1. The compounds were evaluated for their ability to interfere with α4β1 integrin-mediated cell adhesion by using Jurkat cells, which are known to constitutively express this integrin [46, 48, 49, 50, 51].
Jurkat E6.1 cells were purchased from American Type Culture Collection (ATCC, Rockville, MD, USA) and were routinely cultured in RPMI-1640 (LifeTechnologies, Milan, Italy) supplemented with 10% FBS (fetal bovine serum, Life Technologies) and 2 mM glutamine. Cells were kept at 37 °C under 5% CO2 humidified atmosphere. Jurkat cells are a widely used cell model to study potential agonist or antagonist ligands able to modulate integrin-mediated cell adhesion. Jurkat cells endogenously express α4β1 integrin [13].
The assays were performed as previously described. In brief, black 96 well plates were coated with VCAM-1 (2 μg/mL) overnight at 4 °C; then, non-specific hydrophobic binding sites were blocked with 1% BSA (bovine serum albumin, Sigma-Aldrich) in HBSS (Life Technologies) for 30 min at 37 °C. Jurkat cells were labelled with CellTracker green CMFDA (12.5 μM, Life Technolgies) and pre-incubated with various concentration (10^−4–10^−10 M) of each new cyclopeptidomimetic or with the vehicle (DMSO) for 30 min at 37 °C. Afterwards, Jurkat cells were plated on VCAM-1-coated wells and incubated for 30 min at 37 °C. Then, wells were washed three times with 1% BSA in HBSS and Jurkat cells were lysed with 0.5% Triton X-100 in PBS for 30 min at 4 °C. Green fluorescence (Ex485 nm/Em 535 nm) was measured in an EnSpire Multimode Plate Reader (PerkinElmer, Waltham, MA, USA). Experiments were performed in quadruplicate and repeated at least three times. The number of adherent cells was determined by comparison with a standard curve made with a known concentration of labelled Jurkat cells. Data analysis and IC50/EC50 values were calculated using GraphPad Prism 6.0 (GraphPad Software, San Diego, CA, USA).
as §1

[8] = system: human α4β1 integrin; parameters: method as in PMID 30051467; conditions: cited from earlier work
[9] = system: α4 integrin; parameters: method as in PMID 30051467; conditions: cited from earlier work
[10] = system: allergic conjunctivitis; parameters: method as in PMID 30051467; conditions: cited from earlier work
[11] = target: α4β1 receptor; parameters: method as in PMID 16767086; conditions: Jurkat cell assay; read-out: IC50, affinity toward α4β1 receptor; cited from earlier work
[12] = system: α4β1–positive cells; parameters: method as in PMID 16767086; conditions: cited from earlier work
[13] = system: endothelial progenitor cells; parameters: method as in PMID 23703610; conditions: α4β1-dependent; cited from earlier work

T1 sequence (P13612 34-1032): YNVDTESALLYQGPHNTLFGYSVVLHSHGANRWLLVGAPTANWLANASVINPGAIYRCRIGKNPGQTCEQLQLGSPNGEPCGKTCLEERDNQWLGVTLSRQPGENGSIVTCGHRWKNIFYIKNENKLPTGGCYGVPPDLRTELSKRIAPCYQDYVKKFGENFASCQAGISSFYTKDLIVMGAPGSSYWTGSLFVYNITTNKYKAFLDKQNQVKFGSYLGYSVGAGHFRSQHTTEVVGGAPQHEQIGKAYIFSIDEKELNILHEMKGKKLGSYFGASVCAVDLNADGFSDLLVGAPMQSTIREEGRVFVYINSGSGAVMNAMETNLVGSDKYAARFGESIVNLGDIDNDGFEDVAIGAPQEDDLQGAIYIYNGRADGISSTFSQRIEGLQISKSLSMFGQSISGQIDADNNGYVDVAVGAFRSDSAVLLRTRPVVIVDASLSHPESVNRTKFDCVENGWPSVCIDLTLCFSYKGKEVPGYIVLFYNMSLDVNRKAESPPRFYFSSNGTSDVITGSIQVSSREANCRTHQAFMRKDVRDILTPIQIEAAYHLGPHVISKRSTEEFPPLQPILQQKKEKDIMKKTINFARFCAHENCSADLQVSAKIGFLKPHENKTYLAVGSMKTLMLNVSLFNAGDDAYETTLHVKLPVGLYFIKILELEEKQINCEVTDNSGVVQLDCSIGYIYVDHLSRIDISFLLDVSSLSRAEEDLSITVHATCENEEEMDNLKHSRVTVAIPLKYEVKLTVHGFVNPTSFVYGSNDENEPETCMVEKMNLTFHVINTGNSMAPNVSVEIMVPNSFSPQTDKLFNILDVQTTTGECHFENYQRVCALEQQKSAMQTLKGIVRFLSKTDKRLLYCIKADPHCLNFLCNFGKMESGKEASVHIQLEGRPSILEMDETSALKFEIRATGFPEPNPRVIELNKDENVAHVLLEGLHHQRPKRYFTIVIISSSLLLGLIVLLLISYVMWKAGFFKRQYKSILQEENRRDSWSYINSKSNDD
T1 sequence (P05556 21-798): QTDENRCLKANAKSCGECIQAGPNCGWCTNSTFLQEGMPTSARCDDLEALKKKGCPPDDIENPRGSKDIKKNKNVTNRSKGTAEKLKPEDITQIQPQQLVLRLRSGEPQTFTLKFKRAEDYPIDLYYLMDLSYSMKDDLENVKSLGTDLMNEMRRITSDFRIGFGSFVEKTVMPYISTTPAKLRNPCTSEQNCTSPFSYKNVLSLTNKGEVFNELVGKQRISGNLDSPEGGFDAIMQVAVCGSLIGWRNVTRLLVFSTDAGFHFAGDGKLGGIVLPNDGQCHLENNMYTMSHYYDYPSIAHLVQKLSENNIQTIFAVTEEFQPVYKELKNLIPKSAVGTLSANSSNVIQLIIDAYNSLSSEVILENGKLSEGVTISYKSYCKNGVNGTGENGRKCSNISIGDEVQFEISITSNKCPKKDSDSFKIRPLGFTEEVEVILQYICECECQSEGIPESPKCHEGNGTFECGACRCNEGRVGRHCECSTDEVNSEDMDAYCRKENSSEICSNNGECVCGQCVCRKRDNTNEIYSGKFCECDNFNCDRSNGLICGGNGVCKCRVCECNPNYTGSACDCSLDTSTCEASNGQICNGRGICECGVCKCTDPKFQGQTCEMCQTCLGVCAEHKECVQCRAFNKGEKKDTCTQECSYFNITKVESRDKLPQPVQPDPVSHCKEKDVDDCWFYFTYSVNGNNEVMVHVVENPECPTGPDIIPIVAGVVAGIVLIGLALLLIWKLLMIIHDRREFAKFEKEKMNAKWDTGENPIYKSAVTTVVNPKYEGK

Q: With `Cc1ccccc1NC(=O)Nc1ccc(CC(=O)N[C@@H](CC(C)C)C(=O)N[C@@H](CC(=O)O)C(=O)N[C@H](C(=O)N2CCC[C@H]2C(=O)O)C(C)C)cc1` [BIO1211, MPUPA-Leu-Asp-Val-Pro] ({NH(2-Me-phenyl)-CO}-[X1]LDVP-OH) as the compound, how does the Enzymatic stability [1] read?
A: a certain enzymatic instability

Q: And the IC50 [2]?
A: 2000 nM

Q: What about the “Effect of BIO1211 on cell adhesion induced by coated compound 16” value ([3]; BIO1211 10 nM–100 mM, wells coated with compound 16 10 μg/mL) of the same compound?
A: not able to reduce the increment of cell adhesion induced by compound 16

Q: What about the IC50 [4] of the same compound?
A: 4 nM

Q: What about the “Efficacy in sheep model of allergic bronchoconstriction” value [5] of the same compound?
A: prophylactic efficacy

Q: What does the source list for `Cc1ccccc1NC(=O)Nc1ccc(CNC(=O)C2=CCN(C(=O)CC(=O)O)[C@@H]2C(C)C)cc1` [Compound 11a]?
A: Enzymatic stability [1]: superior enzymatic stability respect to cyclic peptides 8–10; IC50, inhibition of α4β1/VCAM interaction [6]: in the nanomolar range

Q: Which “Inhibitory potency towards α4β1 integrin” value [6] does the source give for `Cc1ccccc1NC(=O)Nc1ccc(CNC(=O)C2=CCN(C(=O)CC(=O)O)[C@H]2C(C)C)cc1` [Compound 11b] here?
A: considerably less active

Q: Which “Jurkat cell adhesion to compound-coated wells” value ([3]; wells coated with 10 μg/mL, absence of VCAM-1, vs BSA-coated wells) does the source give for `Cc1ccccc1NC(=O)Nc1ccc(CC(=O)N2CC3CC2C(=O)NC(C(C)C)C(=O)NC(CC(=O)O)C(=O)NC(CC(C)C)C(=O)N3)cc1` (stereo not drawn) [Compound 16, c[(MPUPA)Amp-Val-Asp-Leu]] ({NH(2-Me-phenyl)-CO}-[X1][ξPro(4ξ-NH2)]VDL; lactam 2-C; configuration not given here) here?
A: able to induce Jurkat cell adhesion; also recorded: significant adhesion of Jurkat cells

Q: And the “Behaviour in α4β1 integrin-mediated cell adhesion (agonist/antagonist)” value ([7]; Jurkat cell adhesion to VCAM-1 (2 μg/mL))?
A: agonist

Q: And the EC50 ([7]; Jurkat cell adhesion to VCAM-1 (2 μg/mL), means ± SD, n = 3, read-out: EC50/IC50 (EC50 for compounds enhancing cell adhesion))?
A: 370 ± 90 nM

Q: And the “Effect of compound 16 on the reduced cell adhesion induced by BIO1211” value ([7]; cells pre-incubated with BIO1211 (1 μM) 30 min, then compound 16 (100 μM))?
A: not able to modify the reduction in adhesion induced by BIO1211; also recorded: not able to modify the reduced cell adhesion induced by BIO1211

Q: And the “Effect on Jurkat cell adhesion to VCAM-1” value ([7]; compound 16 100 μM)?
A: increasing the adhesion of Jurkat cells to VCAM-1

Q: For `Cc1ccccc1NC(=O)Nc1ccc(CC(=O)N2CC[C@H](C(=O)NCC(=O)O)C2)cc1` [DS-70], which “Binding affinity for human α4β1 integrin” value [8] is on record?
A: high binding affinity

Q: What about the “Antagonist activity of α4–mediated cell adhesion” value [9] of the same compound?
A: potent antagonist activity

Q: And the “Outcome in guinea pig model of allergic conjunctivitis” value [10]?
A: successfully tested

Q: With `Cc1ccccc1NC(=O)Nc1ccc(CC(=O)N[C@@H](CCCCNC(=O)/C=C/c2cccnc2)C(=O)N[C@@H](CCCC(=O)O)C(=O)NC2(C(N)=O)CCCCC2)cc1` [LLP2A] as the compound, how does the IC50 [11] read?
A: 0.002 nM

Q: What about the “Effect on cell proliferation and survival of α4β1–positive cells” value [12] of the same compound?
A: without any effect

Q: For `CCCC[C@@H](COC(=O)N(Cc1cccs1)Cc1cccs1)NC(=O)N[C@@H](CC(=O)OC)c1ccc2c(c1)OCO2` [THI0019], which “Effect on endothelial progenitor cells in vitro” value [13] is on record?
A: enhanced the rolling, spreading, adhesion, and migration
